US20260345649A1, “PHARMACEUTICAL COMPOSITION FOR DESTRUCTION OF TUMOR BLOOD VESSELS” (SAMSUNG MEDICAL FOUNDATION, priority 2022, published 2026)

How the values were obtained:
[1] = tested on: human gastric cancer cells; assay: Human gastric cancer cell xenograft in nude mice, alkaline 5-FU injected adjacent to tumor; assay type: in vivo, nude mice (Crj: BALB/c-nu/nu), human tumor cells; conditions: 5 mg 5-FU pH 8.4, three times at one-week intervals, 4 weeks, P<0.05, FIG. 8
Description: The animals used in the experiment were six male nude mice (Crj: BALB/c-nu/nu mice, male) aged five weeks and weighing approximately 30 grams, purchased from Orient. The mice were subjected to a one-week acclimation period in the laboratory before use. Each nude mouse was subcutaneously xenografted with 5×10^6 human gastric cancer cells suspended in 100 μL of PBS on the dorsal subcutaneous layer. The tumor size was periodically measured, and when it reached a diameter of 1 cm, the drug administration experiment was conducted.
The experimental animals were divided into two groups. One group served as the control group, receiving only physiological saline, while the other group was administered 5 mg of 5-FU at pH 8.4. The drug was injected 0.2 cc adjacent to the tumor three times at one-week intervals. After one month, the major and minor axes of the tumors growing on the dorsal epidermis were measured.

[2] = tested on: HUVECs; assay: MTS cell proliferation assay, 5-FU cytotoxicity in HUVECs at different pH; assay type: cell-based, human; conditions: FIG. 5
Description: To evaluate the cytotoxic effect of 5-fluorouracil (5-FU) in human umbilical vein endothelial cells (HUVECs) under different pH conditions, an MTS cell proliferation assay was performed.
Subsequently, the cells were cultured for an additional 24 hours in Dulbecco's Modified Eagle's Medium (DMEM) containing 5-FU at different pH conditions (pH 6.4, 7.4, 8.4, and 9.0). Following the incubation, the cells were washed twice with phosphate-buffered saline (PBS), after which 100 μL of fresh DMEM growth medium was added, followed by an additional 48-hour incubation. […] After an additional 2-hour incubation, the absorbance was measured at 490 nm using a microplate reader (Model 680, BIO-RAD; Spark, TECAN, CA, USA).

`O=c1[nH]cc(F)c(=O)[nH]1` [5-FU, 5-fluorouracil] was tested, and the “tumor size compared to before injection” value [1] was “significantly reduced”, the “cytotoxicity under alkaline conditions compared to neutral or acidic 5-FU” value [2] was “significantly greater toxicity” and the “cytotoxic effect according to pH” value ([2]; pH 6.4, 7.4, 8.4, and 9.0, 24 hours) was “increased as the alkalinity of the drug became stronger”.
